Assay results published in patent US20250221988A1 (Cullgen (Shanghai), Inc., priority 2022, published 2025).
Like-named read-outs stand apart in the source and are kept apart here.

Experiments:
[1] = test system: MV4;11 cells; assay: Cell viability assay (CellTiter-Glo) in MV4;11 cells; format: cell-based; details: read-out: MV4
Protocol: (§1) Cell Culture: RS4;11, MV4;11, MOLM-13 and other cells were cultured at 37° C. with 5% CO2 in RPMI 1640 or DMEM Medium supplemented with 10% fetal bovine serum. Cells were authenticated using the short tandem repeat (STR) assays. Mycoplasma test results were negative.
(§2) Cell viability assays: Cells were seeded at a density of 5000 cells per well in 96-well assay plates and treated with test compounds following a 8-point or 12-point 3-fold serial dilution. Three days later, cell viability was determined using the CellTiter-Glo assay kit according to the manufacturer's instructions. The dose-response curves were determined and IC50 values were calculated using the GraphPad Prism software following a nonlinear regression (least squares fit) method.
The IC50 values (nM) of each compound were determined in MV4;11 and MOLM-13 cells with or without gilteritinib (10 nM for MV4;11; and 20 nM for MOML-13) as described in the Materials and Methods subsection and calculated using the GraphPad Prism 5.0 software.

[2] = test system: MOLM-13 cells; assay: Cell viability assay (CellTiter-Glo) in MOLM-13 cells; format: cell-based
Protocol: as §1
as §2, with “method. […]” for “method.”

[3] = Homo sapiens, MV4-11, 72 h, 11 IC50 (nM)
[4] = 11 IC50 (nM) + 10 nM Gil, MV4;11 cells, with 10 nM gilteritinib, three days
[5] = Homo sapiens, MOLM-13, 72 h, read-out: MOLM-13 IC50 (nM)
[6] = read-out: MOLM-13 IC50 (nM) + 10 nM Gil, MOLM-13 cells, with gilteritinib, three days
[7] = Homo sapiens, MV4-11, 72 h, MV4;11 cells, compound alone, three days, 11 IC50
[8] = MV4;11 cells, with 10 nM gilteritinib, three days, 11 IC50 (nM) + 10 nM Gil
[9] = Homo sapiens, 72 h, MOLM-13 cells, compound alone, three days, read-out: MOLM-13 IC50
[10] = MOLM-13 cells, with gilteritinib, three days, read-out: MOLM-13 IC50 (nM) + 10 nM Gil

O=C1CCC(N2C(=O)c3ccc(NC[C@H]4C[C@H](n5cc(-c6cccc(N7CCC7)c6)c(C6CC6)n5)C4)cc3C2=O)C(=O)N1 (stereo partly drawn) [GS-653, 5-(((Trans-3-(4-(3-(azetidin-1-yl)phenyl)-3-cyclopropyl-1H-pyrazol-1-yl)cyclobutyl)methyl)amino)-2-(2,6-dioxopiperidin-3-yl)isoindoline-1,3-dione]
IC50 [1, 3]: 100 to 1000 nM
IC50 [1, 4]: 10 to 100 nM
IC50 [2, 5]: > 1000 nM
IC50 [2, 6]: 10 to 100 nM

O=C1CCC(N2C(=O)c3ccc(NC[C@H]4C[C@H](n5cc(-c6ccccc6C6CCNCC6)c(C6CC6)n5)C4)cc3C2=O)C(=O)N1 (stereo partly drawn) [GS-654, 5-(((Trans-3-(3-cyclopropyl-4-(2-(piperidin-4-yl)phenyl)-1H-pyrazol-1-yl)cyclobutyl)methyl)amino)-2-(2,6-dioxopiperidin-3-yl)isoindoline-1,3-dione]
IC50 [1, 7]: > 1000 nM
IC50 [1, 8]: 10 to 100 nM
IC50 [2, 9]: 100 to 1000 nM
IC50 [2, 10]: 100 to 1000 nM

CN1CC(c2ccc3ncc(-c4cn([C@H]5C[C@H](CNc6ccc7c(c6)C(=O)N(C6CCC(=O)NC6=O)C7=O)C5)nc4C4CC4)nc3c2)C1 (stereo partly drawn) [GS-655, 5-(((Trans-3-(3-cyclopropyl-4-(7-(1-methylazetidin-3-yl)quinoxalin-2-yl)-1H-pyrazol-1-yl)cyclobutyl)methyl)amino)-2-(2,6-dioxopiperidin-3-yl)isoindoline-1,3-dione]
IC50 [1, 7]: 100 to 1000 nM
IC50 [1, 8]: 10 to 100 nM
IC50 [2, 9]: > 1000 nM
IC50 [2, 10]: 100 to 1000 nM

CC(C)n1ncc2cnc(-c3cn([C@H]4C[C@H](CNc5ccc6c(c5)C(=O)N(C5CCC(=O)NC5=O)C6=O)C4)nc3C(F)F)cc21 (stereo partly drawn) [GS-656, 5-(((Trans-3-(3-(difluoromethyl)-4-(1-isopropyl-1H-pyrazolo[4,3-c]pyridin-6-yl)-1H-pyrazol-1-yl)cyclobutyl)methyl)amino)-2-(2,6-dioxopiperidin-3-yl)isoindoline-1,3-dione]
IC50 [1, 7]: 10 to 100 nM
IC50 [1, 8]: 10 to 100 nM
IC50 [2, 9]: 100 to 1000 nM
IC50 [2, 10]: 10 to 100 nM

Cn1ncc2cnc(-c3cn([C@H]4C[C@H](CNc5ccc6c(c5)C(=O)N(C5CCC(=O)NC5=O)C6=O)C4)nc3C(F)F)cc21 (stereo partly drawn) [GS-657, 5-(((Trans-3-(3-(difluoromethyl)-4-(1-methyl-1H-pyrazolo[4,3-c]pyridin-6-yl)-1H-pyrazol-1-yl)cyclobutyl)methyl)amino)-2-(2,6-dioxopiperidin-3-yl)isoindoline-1,3-dione]
IC50 [1, 7]: 10 to 100 nM
IC50 [1, 8]: < 10 nM
IC50 [2, 9]: 10 to 100 nM
IC50 [2, 10]: < 10 nM

Cn1cnc2cnc(-c3cn([C@H]4C[C@H](CNc5ccc6c(c5)C(=O)N(C5CCC(=O)NC5=O)C6=O)C4)nc3C3CC3)cc21 (stereo partly drawn) [GS-658, 5-(((Trans-3-(3-cyclopropyl-4-(1-methyl-1H-imidazo[4,5-c]pyridin-6-yl)-1H-pyrazol-1-yl)cyclobutyl)methyl)amino)-2-(2,6-dioxopiperidin-3-yl)isoindoline-1,3-dione]
IC50 [1, 7]: > 1000 nM
IC50 [1, 8]: 100 to 1000 nM
IC50 [2, 9]: > 1000 nM
IC50 [2, 10]: 100 to 1000 nM

O=C1CCC(N2C(=O)c3ccc(NC[C@H]4C[C@H](n5cc(-c6cnc7ccc(N8CCC(O)C8)cc7n6)c(C6CC6)n5)C4)cc3C2=O)C(=O)N1 (stereo partly drawn) [GS-659, 5-(((Trans-3-(3-cyclopropyl-4-(7-(3-hydroxypyrrolidin-1-yl)quinoxalin-2-yl)-1H-pyrazol-1-yl)cyclobutyl)methyl)amino)-2-(2,6-dioxopiperidin-3-yl)isoindoline-1,3-dione]
IC50 [1, 7]: < 10 nM
IC50 [1, 8]: < 10 nM
IC50 [2, 9]: < 10 nM
IC50 [2, 10]: < 10 nM

CC(C)n1cc2ccnc(-c3cn([C@H]4C[C@H](CNc5ccc6c(c5)C(=O)N(C5CCC(=O)NC5=O)C6=O)C4)nc3C3CC3)c2n1 (stereo partly drawn) [GS-660, 5-(((Trans-3-(3-cyclopropyl-4-(2-isopropyl-2H-pyrazolo[3,4-c]pyridin-7-yl)-1H-pyrazol-1-yl)cyclobutyl)methyl)amino)-2-(2,6-dioxopiperidin-3-yl)isoindoline-1,3-dione]
IC50 [1, 7]: < 10 nM
IC50 [1, 8]: < 10 nM
IC50 [2, 9]: < 10 nM
IC50 [2, 10]: < 10 nM

CC(C)n1ncc2ccnc(-c3cn([C@H]4C[C@H](CNc5ccc6c(c5)C(=O)N(C5CCC(=O)NC5=O)C6=O)C4)nc3C3CC3)c21 (stereo partly drawn) [GS-661, 5-(((Trans-3-(3-cyclopropyl-4-(1-isopropyl-1H-pyrazolo[3,4-c]pyridin-7-yl)-1H-pyrazol-1-yl)cyclobutyl)methyl)amino)-2-(2,6-dioxopiperidin-3-yl)isoindoline-1,3-dion]
IC50 [1, 3]: 10 to 100 nM
IC50 [1, 4]: < 10 nM
IC50 [2, 5]: 10 to 100 nM
IC50 [2, 6]: < 10 nM

O=C1CCC(N2Cc3ccc(NC[C@H]4C[C@H](n5cc(-c6cnc7ccccc7n6)c(C6CC6)n5)C4)cc3C2=O)C(=O)N1 (stereo partly drawn) [GS-662, 3-(6-(((Trans-3-(3-cyclopropyl-4-(quinoxalin-2-yl)-1H-pyrazol-1-yl)cyclobutyl)methyl)amino)-1-oxoisoindolin-2-yl)piperidine-2,6-dione]
IC50 [1, 7]: > 1000 nM
IC50 [2, 9]: > 1000 nM

O=C1CCC(N2C(=O)c3ccc(NC[C@H]4C[C@H](n5nc(C6CC6)c6cncnc65)C4)cc3C2=O)C(=O)N1 (stereo partly drawn) [GS-663, 5-(((Trans-3-(3-cyclopropyl-1H-pyrazolo[3,4-d]pyrimidin-1-yl)cyclobutyl)methyl)amino)-2-(2,6-dioxopiperidin-3-yl)isoindoline-1,3-dione]
IC50 [1, 7]: > 1000 nM
IC50 [2, 9]: > 1000 nM
IC50 [2, 10]: 100 to 1000 nM

CC(C)n1cnc2cnc(-c3cn([C@H]4C[C@H](CNc5ccc6c(c5)C(=O)N(C5CCC(=O)NC5=O)C6=O)C4)nc3C3CC3)cc21 (stereo partly drawn) [GS-664, 5-(((Trans-3-(3-cyclopropyl-4-(1-isopropyl-1H-imidazo[4,5-c]pyridin-6-yl)-1H-pyrazol-1-yl)cyclobutyl)methyl)amino)-2-(2,6-dioxopiperidin-3-yl)isoindoline-1,3-dione]
IC50 [1, 3]: > 1000 nM
IC50 [1, 4]: 100 to 1000 nM
IC50 [2, 5]: > 1000 nM
IC50 [2, 6]: 100 to 1000 nM

O=C1CCC(N2C(=O)c3ccc(NC[C@H]4C[C@H](n5cc(-c6ncccc6C6CCNCC6)c(C6CC6)n5)C4)cc3C2=O)C(=O)N1 (stereo partly drawn) [GS-665, 5-(((Trans-3-(3-cyclopropyl-4-(3-(piperidin-4-yl)pyridin-2-yl)-1H-pyrazol-1-yl)cyclobutyl)methyl)amino)-2-(2,6-dioxopiperidin-3-yl)isoindoline-1,3-dione]
IC50 [1, 7]: > 1000 nM
IC50 [2, 9]: > 1000 nM

CN1CCC(Nc2cn([C@H]3C[C@H](CNc4ccc5c(c4)C(=O)N(C4CCC(=O)NC4=O)C5=O)C3)nc2C2CC2)CC1 (stereo partly drawn) [GS-666, 5-(((Trans-3-(3-cyclopropyl-4-((1-methylpiperidin-4-yl)amino)-1H-pyrazol-1-yl)cyclobutyl)methyl)amino)-2-(2,6-dioxopiperidin-3-yl)isoindoline-1,3-dione]
IC50 [1, 7]: > 1000 nM
IC50 [2, 9]: > 1000 nM

O=C1CCC(N2C(=O)c3ccc(NC[C@H]4C[C@H](n5cc(NC6CCCCC6)c(C6CC6)n5)C4)cc3C2=O)C(=O)N1 (stereo partly drawn) [GS-667, 5-(((Trans-3-(4-(cyclohexylamino)-3-cyclopropyl-1H-pyrazol-1-yl)cyclobutyl)methyl)amino)-2-(2,6-dioxopiperidin-3-yl)isoindoline-1,3-dione]
IC50 [1, 3]: 10 to 100 nM
IC50 [1, 4]: < 10 nM
IC50 [2, 5]: 10 to 100 nM
IC50 [2, 6]: 10 to 100 nM

Cc1cc(F)cnc1-c1cn([C@H]2C[C@H](CNc3ccc4c(c3)CN(C3CCC(=O)NC3=O)C4=O)C2)nc1C(F)F (stereo partly drawn) [GS-668, 3-(5-(((Trans-3-(3-(difluoromethyl)-4-(5-fluoro-3-methylpyridin-2-yl)-1H-pyrazol-1-yl)cyclobutyl)methyl)amino)-1-oxoisoindolin-2-yl)piperidine-2,6-dione]
IC50 [1, 7]: < 10 nM
IC50 [1, 8]: < 10 nM
IC50 [2, 9]: < 10 nM
IC50 [2, 10]: < 10 nM

O=C1CCC(N2C(=O)c3ccc(NC[C@H]4C[C@H](n5cc(Nc6ccccn6)c(C6CC6)n5)C4)cc3C2=O)C(=O)N1 (stereo partly drawn) [GS-669, 5-(((Trans-3-(3-cyclopropyl-4-(pyridin-2-ylamino)-1H-pyrazol-1-yl)cyclobutyl)methyl)amino)-2-(2,6-dioxopiperidin-3-yl)isoindoline-1,3-dione]
IC50 [1, 7]: 100 to 1000 nM
IC50 [1, 8]: 100 to 1000 nM
IC50 [2, 9]: > 1000 nM
IC50 [2, 10]: 100 to 1000 nM

O=C1CCC(N2C(=O)c3ccc(NC[C@H]4C[C@H](n5cc(Nc6cccnc6)c(C6CC6)n5)C4)cc3C2=O)C(=O)N1 (stereo partly drawn) [GS-670, 5-(((Trans-3-(3-cyclopropyl-4-(pyridin-3-ylamino)-1H-pyrazol-1-yl)cyclobutyl)methyl)amino)-2-(2,6-dioxopiperidin-3-yl)isoindoline-1,3-dione]
IC50 [1, 7]: 10 to 100 nM
IC50 [1, 8]: 10 to 100 nM
IC50 [2, 9]: 100 to 1000 nM
IC50 [2, 10]: 10 to 100 nM
